Target: T1, full length AKT E17K (Homo sapiens, UniProt P31749, E17K)
T1 construct: host or cells: HEK-293 (ATCC CRL-1573)
Assay: NanoBRET Target Engagement (TE) Assay
Format: cell-based
Settings: competitive displacement of tracer in cells, read-out: AKT1 E17K IC50
How it was run: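 Compound and tracer incubated 2 h before luminescence at donor 450 nm and acceptor 600 nm, with extracellular signal inhibited. EC50 by sigmoidal variable-slope regression.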

T1 sequence (P31749 whole entry E17K): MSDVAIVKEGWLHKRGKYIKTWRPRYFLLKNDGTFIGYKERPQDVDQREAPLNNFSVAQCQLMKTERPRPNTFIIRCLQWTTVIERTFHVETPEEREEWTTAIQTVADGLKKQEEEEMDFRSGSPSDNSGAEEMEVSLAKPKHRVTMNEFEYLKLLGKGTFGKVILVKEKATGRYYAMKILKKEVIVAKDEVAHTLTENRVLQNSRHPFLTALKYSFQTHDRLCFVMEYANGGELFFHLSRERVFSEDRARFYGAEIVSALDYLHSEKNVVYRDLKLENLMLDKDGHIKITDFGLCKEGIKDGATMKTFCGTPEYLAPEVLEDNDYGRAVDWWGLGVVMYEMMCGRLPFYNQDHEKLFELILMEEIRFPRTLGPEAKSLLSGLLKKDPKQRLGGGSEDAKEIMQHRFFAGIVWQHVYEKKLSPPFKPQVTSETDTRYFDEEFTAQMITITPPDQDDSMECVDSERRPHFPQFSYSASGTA

Row | SMILES | IC50
1 | N#Cc1nccc(N2CC3(CCN(Cc4ccc(-n5c(-c6cccnc6N)nc6ccc(-c7ccccc7)nc65)cc4)CC3)C2)n1 [Example 361, 4-(7-(4-(2-(2-Aminopyridin-3-yl)-5-phenyl-3H-imidazo[4,5-b]pyridin-3-yl)benzyl)-2,7-diazaspiro[3.5]nonan-2-yl)pyrimidine-2-carbonitrile] | < 0.015 µM
2 | N#Cc1nccc(NC2CC3(CCN(Cc4ccc(-n5c(-c6cccnc6N)nc6ccc(-c7ccccc7)nc65)cc4)CC3)C2)n1 [Example 362, 4-((7-(4-(2-(2-Aminopyridin-3-yl)-5-phenyl-3H-imidazo[4,5-b]pyridin-3-yl)benzyl)-7-azaspiro[3.5]nonan-2-yl)amino)pyrimidine-2-carbonitrile] | < 0.015 µM
3 | N#Cc1ncnc(N2CCC3(CCN(Cc4ccc(-n5c(-c6cccnc6N)nc6ccc(-c7ccccc7)nc65)cc4)CC3)C2)n1 [Example 363, 4-(8-(4-(2-(2-Aminopyridin-3-yl)-5-phenyl-3H-imidazo[4,5-b]pyridin-3-yl)benzyl)-2,8-diazaspiro[4.5]decan-2-yl)-1,3,5-triazine-2-carbonitrile] | 0.015 to 0.06 µM
4 | N#Cc1nccc(N2CCC3(CCN(Cc4ccc(-n5c(-c6cccnc6N)nc6ccc(-c7ccccc7)nc65)cc4)CC3)CC2)n1 [Example 364, 4-(9-(4-(2-(2-Aminopyridin-3-yl)-5-phenyl-3H-imidazo[4,5-b]pyridin-3-yl)benzyl)-3,9-diazaspiro[5.5]undecan-3-yl)pyrimidine-2-carbonitrile] | 0.015 to 0.06 µM
5 | N#Cc1ncnc(N2CCC3(CCN(Cc4ccc(-n5c(-c6cccnc6N)nc6ccc(-c7ccccc7)nc65)cc4)CC3)CC2)n1 [Example 365, 4-(9-(4-(2-(2-Aminopyridin-3-yl)-5-phenyl-3H-imidazo[4,5-b]pyridin-3-yl)benzyl)-3,9-diazaspiro[5.5]undecan-3-yl)-1,3,5-triazine-2-carbonitrile] | 0.015 to 0.06 µM
6 | N#Cc1nccc(N2CC3(CN(Cc4ccc(-n5c(-c6cccnc6N)nc6ccc(-c7ccccc7)nc65)cc4)C3)C2)n1 [Example 366, 4-(6-(4-(2-(2-Aminopyridin-3-yl)-5-phenyl-3H-imidazo[4,5-b]pyridin-3-yl)benzyl)-2,6-diazaspiro[3.3]heptan-2-yl)pyrimidine-2-carbonitrile] | < 0.015 µM
7 | N#Cc1nccc(N2C[C@@H]3CN(Cc4ccc(-n5c(-c6cccnc6N)nc6ccc(-c7ccccc7)nc65)cc4)C[C@H]3C2)n1 [Example 367, 4-((3aS,6aS)-5-(4-(2-(2-aminopyridin-3-yl)-5-phenyl-3H-imidazo[4,5-b]pyridin-3-yl)benzyl)hexahydropyrrolo[3,4-c]pyrrol-2(1H)-yl)pyrimidine-2-carbonitrile] | < 0.015 µM
8 | N#Cc1ncnc(N2CCN(Cc3ccc(-n4c(-c5cccnc5N)nc5ccc(-c6ccc(F)cc6)nc54)cc3)CC2)n1 [Example 368, 4-(4-(4-(2-(2-Aminopyridin-3-yl)-5-(4-fluorophenyl)-3H-imidazo[4,5-b]pyridin-3-yl)benzyl)piperazin-1-yl)-1,3,5-triazine-2-carbonitrile] | < 0.015 µM
9 | N#Cc1ncnc(N2CCN(Cc3ccc(-n4c(-c5cccnc5N)nc5ccc(-c6ccc(Cl)cc6)nc54)cc3)CC2)n1 [Example 369, 4-(4-(4-(2-(2-Aminopyridin-3-yl)-5-(4-chlorophenyl)-3H-imidazo[4,5-b]pyridin-3-yl)benzyl)piperazin-1-yl)-1,3,5-triazine-2-carbonitrile] | 0.015 to 0.06 µM
10 | N#Cc1nccc(NC2CCN(Cc3ccc(-n4c(-c5cccnc5N)nc5ccc(-c6ccc(F)cc6)nc54)cc3)CC2)n1 [Example 370, 4-((1-(4-(2-(2-Aminopyridin-3-yl)-5-(4-fluorophenyl)-3H-imidazo[4,5-b]pyridin-3-yl)benzyl)piperidin-4-yl)amino)pyrimidine-2-carbonitrile] | < 0.015 µM
11 | N#Cc1ccnc(NC2CCN(Cc3ccc(-n4c(-c5cccnc5N)nc5ccc(-c6ccc(Cl)cc6)nc54)cc3)CC2)n1 [Example 371, 2-((1-(4-(2-(2-Aminopyridin-3-yl)-5-(4-chlorophenyl)-3H-imidazo[4,5-b]pyridin-3-yl)benzyl)piperidin-4-yl)amino)pyrimidine-4-carbonitrile] | 0.06 to 0.6 µM
12 | N#Cc1ccnc(NC2CCN(Cc3ccc(-n4c(-c5cccnc5N)nc5ccc(-c6cccc(Cl)c6)nc54)cc3)CC2)n1 [Example 372, 2-((1-(4-(2-(2-Aminopyridin-3-yl)-5-(3-chlorophenyl)-3H-imidazo[4,5-b]pyridin-3-yl)benzyl)piperidin-4-yl)amino)pyrimidine-4-carbonitrile] | 0.015 to 0.06 µM
13 | N#Cc1cc(NC2CCN(Cc3ccc(-n4c(-c5cccnc5N)nc5ccc(-c6cccc(Cl)c6)nc54)cc3)CC2)ncn1 [Example 373, 6-((1-(4-(2-(2-Aminopyridin-3-yl)-5-(3-chlorophenyl)-3H-imidazo[4,5-b]pyridin-3-yl)benzyl)piperidin-4-yl)amino)pyrimidine-4-carbonitrile] | 0.015 to 0.06 µM
14 | N#Cc1cc(N2CCN(Cc3ccc(-n4c(-c5cccnc5N)nc5ccc(-c6cccc(Cl)c6)nc54)cc3)CC2)ncn1 [Example 374, 6-(4-(4-(2-(2-Aminopyridin-3-yl)-5-(3-chlorophenyl)-3H-imidazo[4,5-b]pyridin-3-yl)benzyl)piperazin-1-yl)pyrimidine-4-carbonitrile] | 0.015 to 0.06 µM
15 | N#Cc1nccc(N2C[C@@H]3C[C@H]2CN3Cc2ccc(-n3c(-c4cccnc4N)nc4ccc(-c5ccccc5)nc43)cc2)n1 [Example 375, 4-((1S,4S)-5-(4-(2-(2-Aminopyridin-3-yl)-5-phenyl-3H-imidazo[4,5-b]pyridin-3-yl)benzyl)-2,5-diazabicyclo[2.2.1]heptan-2-yl)pyrimidine-2-carbonitrile] | 0.015 to 0.06 µM
16 | N#Cc1cc(N2C[C@@H]3C[C@H]2CN3Cc2ccc(-n3c(-c4cccnc4N)nc4ccc(-c5ccccc5)nc43)cc2)ncn1 [Example 376, 6-((1S,4S)-5-(4-(2-(2-Aminopyridin-3-yl)-5-phenyl-3H-imidazo[4,5-b]pyridin-3-yl)benzyl)-2,5-diazabicyclo[2.2.1]heptan-2-yl)pyrimidine-4-carbonitrile] | 0.06 to 0.6 µM
17 | N#Cc1ccnc(N2C[C@@H]3C[C@H]2CN3Cc2ccc(-n3c(-c4cccnc4N)nc4ccc(-c5ccccc5)nc43)cc2)n1 [Example 377, 2-((1S,4S)-5-(4-(2-(2-Aminopyridin-3-yl)-5-phenyl-3H-imidazo[4,5-b]pyridin-3-yl)benzyl)-2,5-diazabicyclo[2.2.1]heptan-2-yl)pyrimidine-4-carbonitrile] | 0.06 to 0.6 µM
18 | C[C@@H]1CN(Cc2ccc(-n3c(-c4cccnc4N)nc4ccc(-c5ccccc5)nc43)cc2)C[C@H](C)N1c1ccnc(C#N)n1 [Example 378, 4-((2S,6R)-4-(4-(2-(2-Aminopyridin-3-yl)-5-phenyl-3H-imidazo[4,5-b]pyridin-3-yl)benzyl)-2,6-dimethylpiperazin-1-yl)pyrimidine-2-carbonitrile] | 0.06 to 0.6 µM
19 | C[C@@H]1CN(Cc2ccc(-n3c(-c4cccnc4N)nc4ccc(-c5ccccc5)nc43)cc2)C[C@H](C)N1c1nccc(C#N)n1 [Example 379, 2-((2S,6R)-4-(4-(2-(2-Aminopyridin-3-yl)-5-phenyl-3H-imidazo[4,5-b]pyridin-3-yl)benzyl)-2,6-dimethylpiperazin-1-yl)pyrimidine-4-carbonitrile] | 0.6 to 10 µM
20 | C[C@@H]1CN(Cc2ccc(-n3c(-c4cccnc4N)nc4ccc(-c5ccccc5)nc43)cc2)C[C@H](C)N1c1cc(C#N)ncn1 [Example 380, 6-((2S,6R)-4-(4-(2-(2-Aminopyridin-3-yl)-5-phenyl-3H-imidazo[4,5-b]pyridin-3-yl)benzyl)-2,6-dimethylpiperazin-1-yl)pyrimidine-4-carbonitrile] | 0.6 to 10 µM
21 | N#Cc1nccc(NC2CCN(Cc3ccc(-n4c(-c5cccnc5N)nc5ccc(-c6ccc[nH]c6=O)nc54)cc3)CC2)n1 [Example 381, 4-((1-(4-(2-(2-Aminopyridin-3-yl)-5-(2-oxo-1,2-dihydropyridin-3-yl)-3H-imidazo[4,5-b]pyridin-3-yl)benzyl)piperidin-4-yl)amino)pyrimidine-2-carbonitrile] | < 0.015 µM
22 | N#Cc1ncnc(NC2CCN(Cc3ccc(-n4c(-c5cccnc5N)nc5ccc(-c6ccc(Cl)cc6)nc54)cc3)CC2)n1 [Example 382, 4-((1-(4-(2-(2-Aminopyridin-3-yl)-5-(4-chlorophenyl)-3H-imidazo[4,5-b]pyridin-3-yl)benzyl)piperidin-4-yl)amino)-1,3,5-triazine-2-carbonitrile] | 0.015 to 0.06 µM
23 | N#Cc1nccc(N2CCN(Cc3ccc(-n4c(-c5cccnc5N)nc5ccc(-c6cnccc6C#N)nc54)cc3)CC2)n1 [Example 383, 4-(4-(4-(2-(2-Aminopyridin-3-yl)-5-(4-cyanopyridin-3-yl)-3H-imidazo[4,5-b]pyridin-3-yl)benzyl)piperazin-1-yl)pyrimidine-2-carbonitrile] | < 0.015 µM
24 | N#Cc1nccc(NC2CCN(Cc3ccc(-n4c(-c5cccnc5N)nc5ccc(-c6cnccc6C#N)nc54)cc3)CC2)n1 [Example 384, 4-((1-(4-(2-(2-Aminopyridin-3-yl)-5-(4-cyanopyridin-3-yl)-3H-imidazo[4,5-b]pyridin-3-yl)benzyl)piperidin-4-yl)amino)pyrimidine-2-carbonitrile] | 0.015 to 0.06 µM
25 | [2H]C([2H])(c1ccc(-n2c(-c3cccnc3N)nc3cccnc32)cc1)N1CCC(Nc2ccnc(C#N)n2)CC1 [Example 385, 4-((1-((4-(2-(2-Aminopyridin-3-yl)-3H-imidazo[4,5-b]pyridin-3-yl)phenyl)methyl-d2)piperidin-4-yl)amino)pyrimidine-2-carbonitrile] | 0.015 to 0.06 µM
26 | CN1CCCN(c2ccc3nc(-c4cccnc4N)n(-c4ccc(CN5CCN(c6ccnc(C#N)n6)CC5)cc4)c3n2)CC1=O [Example 386, 4-(4-(4-(2-(2-Aminopyridin-3-yl)-5-(4-methyl-3-oxo-1,4-diazepan-1-yl)-3H-imidazo[4,5-b]pyridin-3-yl)benzyl)piperazin-1-yl)pyrimidine-2-carbonitrile] | 0.015 to 0.06 µM

— patent US12209087B2, “AKT1 modulators” (Alterome Therapeutics, Inc., priority 2022, dated 2025)
